pIC50: −log10 of the molar value.
Experiments:
ALK5 = target: T1, ALK5 (Homo sapiens, UniProt P36897); assay: ALK5 enzyme inhibition assay (casein substrate, 10 uM ATP, 33P-ATP, filter-binding; Reaction Biology Corp); format: biochemical
T1 construct: purchased Reaction Biology Corp (Malvern, Pa.)
T1 sequence (P36897 34-503): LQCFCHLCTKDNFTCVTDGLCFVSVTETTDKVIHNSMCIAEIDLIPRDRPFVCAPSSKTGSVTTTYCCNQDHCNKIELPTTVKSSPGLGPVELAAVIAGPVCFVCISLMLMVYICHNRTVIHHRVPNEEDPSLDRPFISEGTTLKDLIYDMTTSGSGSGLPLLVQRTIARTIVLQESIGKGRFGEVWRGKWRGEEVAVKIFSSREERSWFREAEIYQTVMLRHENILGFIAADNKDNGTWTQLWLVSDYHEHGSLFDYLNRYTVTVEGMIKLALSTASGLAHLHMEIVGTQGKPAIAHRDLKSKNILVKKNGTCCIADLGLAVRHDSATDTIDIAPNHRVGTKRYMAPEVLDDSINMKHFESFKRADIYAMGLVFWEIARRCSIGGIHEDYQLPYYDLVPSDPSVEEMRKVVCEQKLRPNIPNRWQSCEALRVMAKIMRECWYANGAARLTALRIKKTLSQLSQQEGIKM
Method in brief: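 Kinase reaction with casein (1 mg/mL) and 10 uM ATP; compounds in DMSO preincubated with kinase 20 min at room temperature, then 33P-ATP added and reacted 2 h at room temperature. Filter-binding radioactivity read-out as percent remaining activity versus DMSO vehicle; IC50 from curve fits.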

[1] = tested on: TGFβ/SMAD Signaling Pathway SBE reporter cell line; assay: TGFb reporter assay in HEK293 SBE-LUC reporter cells (luciferase); format: cell-based; conditions: Homo sapiens, key of the table says IC50, read-out: EC50 (the source's name)
Method in brief: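 HEK293 SBE-luciferase reporter cells in MEM with 0.5% FBS were pretreated with compound for 5–6 h at 37 °C, then stimulated with TGFb (12.5 ng/mL stock added) for 18 h. Luminescence was read after luciferase substrate addition.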

[2] = tested on: HEK293 SBE-LUC reporter cells transfected to stably express full length human ASGR1; assay: Cell reporter assay of anti-ASGR1-ALK5 inhibitor conjugates: TGFβ1-mediated luciferase expression; format: cell-based; conditions: inhibition of TGFβ1-mediated luciferase expression, 6 h preincubation, human TGFβ1 1.6 ng/ml, further 18 h
Method: Anti-ASGR1 antibodies conjugated to an ALK5 inhibitor were tested via a cell reporter assay. Briefly, HEK293 SBE-LUC reporter cells transfected to stably express full length human ASGR1 were seeded in 96 well plates at 40,000 cells/well in an assay media of minimum essential media containing 0.5% fetal bovine serum, 1% nonessential amino acids, 1% sodium pyruvate and 1% Pen/Strep. Anti-ASGR1-ALK5 inhibitor conjugates and controls were added to wells in a dose titration ranging from 5 μM to 0.064 nM to HEK293 SBE-LUC and ASGR1-HEK293 SBE-LUC cells. After incubating for 6 hours at 37° C. in a 5% CO2 environment, human TGFβ 1 (PeproTech Inc.) was added to a final concentration of 1.6 ng/ml followed by an additional 18 hour incubation under the same conditions. Luciferase STEADY-GLO® reagent (Promega Corporation) was added at 70 μl/well and incubated with shaking for 10 minutes. Luciferase activity was determined by measuring luminescence with an ENVISION® Plate Reader (Perkin-Elmer Inc.). Data were fit with a four-parameter non-linear regression to calculate IC50 values using Prism Software v7.04 (GraphPad Inc.).

pIC50 (ALK5; Table 11) | pIC50 [1] | pIC50 (ALK5; Table 12) | SMILES | pIC50 [2]
7.30 to 10.00 | 8.00 to 10.00 |  | Cc1cccc(-c2nc(CNCCc3c(F)cccc3F)[nH]c2-c2ccc3ncnn3c2)n1 [Compound 60] | 7.87
6.00 to 7.00 | 8.00 to 10.00 |  | Cc1cccc(-c2nc(CNCc3ccccc3N(C)C)[nH]c2-c2ccc3ncnn3c2)n1 [Compound 25] | 
 | 6.00 to 7.00 | 6.00 to 7.00 | Cc1cccc(-c2nc(CN[C@H]3CCCC[C@H]3F)[nH]c2-c2ccn3ncnc3c2)n1 [Compound 1.33] | 
6.00 to 7.00 | 7.00 to 8.00 |  | COc1ccc(OC)c(CNCc2nc(-c3cccc(C)n3)c(-c3ccc4ncnn4c3)[nH]2)c1 [Compound 9] | 
6.00 to 7.00 | 8.00 to 10.00 |  | Cc1cccc(-c2nc(CNCCc3ccc(F)cc3F)[nH]c2-c2ccc3ncnn3c2)n1 [Compound 63] | 
7.30 to 10.00 | 8.00 to 10.00 |  | Cc1cccc(-c2nc(CNCCc3c(F)cccc3F)[nH]c2-c2ccc3nccnc3c2)n1 [Compound 82] | 
7.00 to 7.30 | 8.00 to 10.00 |  | Cc1cccc(-c2nc(CNC(c3ccccc3)c3ccccc3)[nH]c2-c2ccc3ncnn3c2)n1 [Compound 13] | 
6.00 to 7.00 | 6.00 to 7.00 |  | Cc1cccc(-c2nc(CNCc3cccc(-c4ccccc4)c3)[nH]c2-c2ccc3ncnn3c2)n1 [Compound 51] | 
 | 6.00 to 7.00 | 6.00 to 7.00 | Cc1cccc(-c2nc(CNc3cccc4c3C(N)CC4)[nH]c2-c2ccc3ncnn3c2)n1 (stereo not drawn) [Compound 1.20] | 
7.30 to 10.00 | 8.00 to 10.00 |  | Cc1cccc(-c2nc(CNCc3ccccc3C(O)C(F)(F)F)[nH]c2-c2ccc3ncnn3c2)n1 (stereo not drawn) [Compound 28] | 
7.00 to 7.30 | 8.00 to 10.00 |  | Cc1cccc(-c2nc(CNCCN(C)c3ccccc3)[nH]c2-c2ccc3ncccc3n2)n1 [Compound 85] | 
7.00 to 7.30 | 8.00 to 10.00 |  | COc1cccc(CNCc2nc(-c3cccc(C)n3)c(-c3ccc4ncnn4c3)[nH]2)c1C [Compound 46] | 
6.00 to 7.00 | 6.00 to 7.00 |  | Cc1cccc(-c2nc(CNCc3ccc(Cl)c(Cl)c3)[nH]c2-c2ccc3ncnn3c2)n1 [Compound 4] | 

— patent publication US20210130473A1, “TGFßR1 INHIBITOR-ASGR ANTIBODY CONJUGATES AND USES THEREOF” (Silverback Therapeutics, Inc., priority 2019, published 2021)
